Measurements as given in patent US20200030202A1, “TWO-STEP TREATMENT FOR DESQUAMATION OF SKIN” (L'OREAL, priority 2018, published 2020).

Test system: isolated human stratum corneum (SC)
Assay: DSC lipid disorganization (shift of melting transition temperatures) of treated stratum corneum
Details: 15 minutes per treatment, 75% RH, RT
Description: Various compositions (alkaline versus acidic) and treatment protocols were tested and compared to determine which compositions and protocols produced the greatest degree of lipid disorganization, which is a common method for estimating the desquamation efficacy. All DSC experiments were performed on isolated human stratum corneum (SC). The SC was prepared using a standard protocol. Human abdominal skin remaining from plastic surgery was obtained in frozen form. Subcutaneous fat was removed and the dermis was separated from epidermis by plunging the skin into hot water (56° C.) for 1-2 min. The remaining viable epidermis was removed by tryptic digestion at 37° C. overnight. The SC was dried and stored at room temperature and ambient humidity. […]
The degree of lipid disorganization following treatment can be conveniently monitored by the shifts of the melting transition temperatures measured by Differential Scanning Calorimetry (DSC). […]
The maxima of the endothermic peaks corresponding to lipid phase transitions are determined using dedicated software (TA Universal Analysis). The peak position and the transition enthalpy are determined with respect to a manually defined linear baseline. […] The shifts of the melting peak positions (ΔTm(T2) and ΔTm(T3)) are calculated with respect to reference thermogrammes obtained with untreated or vehicle-treated samples. […]

Molecule `O=C(O)CO` [70% GA, glycolic acid] has a ΔT (Example 3, ΔTeffective=0.7·ΔTm(T2)+0.3ΔTm(T3) vs untreated or vehicle-treated SC, 0.1 gram, decrease of 2° C. considered significant) of −4.6 and a ΔT (Example 4, same manner as Example 3, different alkaline agents) of −7.1.
